Measurements taken from PMC8748870, “Topoisomerase I (TOP1) dynamics: conformational transition from open to closed states” (Nature Communications, 2022).

Target: T1, HsTOP1 (Homo sapiens, UniProt P11387)
T1 construct: gene TOP1; recombinant human TOP1, wild type, purified from baculovirus expression
T1 sequence (P11387 2-765): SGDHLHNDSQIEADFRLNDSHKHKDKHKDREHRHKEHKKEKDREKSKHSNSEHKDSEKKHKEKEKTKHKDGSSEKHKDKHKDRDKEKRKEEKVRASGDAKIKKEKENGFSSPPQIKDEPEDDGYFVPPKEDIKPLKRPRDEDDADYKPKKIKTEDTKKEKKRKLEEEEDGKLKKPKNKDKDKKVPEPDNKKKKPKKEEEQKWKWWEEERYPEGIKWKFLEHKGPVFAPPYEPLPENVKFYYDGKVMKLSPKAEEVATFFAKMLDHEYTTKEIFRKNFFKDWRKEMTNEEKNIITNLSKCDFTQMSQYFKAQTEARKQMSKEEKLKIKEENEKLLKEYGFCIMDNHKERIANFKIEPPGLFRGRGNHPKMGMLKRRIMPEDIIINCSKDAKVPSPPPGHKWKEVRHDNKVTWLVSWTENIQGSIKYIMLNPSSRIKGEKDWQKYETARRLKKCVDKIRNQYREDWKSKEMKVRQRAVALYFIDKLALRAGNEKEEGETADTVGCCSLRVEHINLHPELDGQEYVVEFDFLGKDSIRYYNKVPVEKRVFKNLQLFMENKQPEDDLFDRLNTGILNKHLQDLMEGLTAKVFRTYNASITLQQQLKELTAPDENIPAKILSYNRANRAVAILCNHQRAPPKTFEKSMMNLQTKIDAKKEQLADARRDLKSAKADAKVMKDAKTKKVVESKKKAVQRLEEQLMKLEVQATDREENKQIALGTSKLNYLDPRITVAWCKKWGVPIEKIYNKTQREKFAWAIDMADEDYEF
Test: […]-labelled oligonucleotide cleavage assay, denaturing PAGE
Assay type: biochemical
Conditions: traps TOP1-DNA cleavage complex; 30-bp DNA, pH 7.5, 5 mM Mg2+, 50 mM KCl, 25 °C

## CC[C@@]1(O)C(=O)OCc2c1cc1n(c2=O)Cc2cc3ccccc3nc2-1 [CPT, camptothecin]
  CPT-dependent cleavage bands: incubation of HsTOP1 induced TOP1ccs exclusively in the presence of CPT
